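Results reflect a 48-hour exposure of cells in 96-well plates to compound at five concentrations. TGI denotes the concentration required for complete inhibition of growth.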
What was measured:
Test in all cases: inhibition of tumour cell growth, NCI panel, 48 h
786-0 renal = system: 786-0 renal
A549 NSCLC = system: A549 NSCLC
ACHN renal = system: ACHN renal
CCRF-CEM leukemia = system: CCRF-CEM leukemia
COLO 205 colon = system: COLO 205 colon
DLD-1 colon = system: DLD-1 colon
DMS 114 small cell lung = system: DMS 114 small cell lung
DMS 273 small cell lung = system: DMS 273 small cell lung
EKVX NSCLC = system: EKVX NSCLC
HCC-2998 colon = system: HCC-2998 colon
HCT-116 colon = system: HCT-116 colon
HCT-15 colon = system: HCT-15 colon
HL-60(TB) leukemia = system: HL-60(TB) leukemia
HOP-18 NSCLC = system: HOP-18 NSCLC
HOP-62 NSCLC = system: HOP-62 NSCLC
HOP-92 NSCLC = system: HOP-92 NSCLC
HT29 colon = system: HT29 colon
IGROV1 ovarian = system: IGROV1 ovarian
K-562 leukemia = system: K-562 leukemia
KM12 colon = system: KM12 colon
KM20L2 colon = system: KM20L2 colon
LOX IMVI melanoma = system: LOX IMVI melanoma
LXFL 529 NSCLC = system: LXFL 529 NSCLC
M14 melanoma = system: M14 melanoma
M19-MEL melanoma = system: M19-MEL melanoma
MALME-3M melanoma = system: MALME-3M melanoma
MOLT-4 leukemia = system: MOLT-4 leukemia
NCI-H226 lung = system: NCI-H226 lung
NCI-H23 lung = system: NCI-H23 lung
NCI-H460 lung = system: NCI-H460 lung
NCI-H522 lung = system: NCI-H522 lung
OVCAR-3 ovarian = system: OVCAR-3 ovarian
OVCAR-4 ovarian = system: OVCAR-4 ovarian
OVCAR-5 ovarian = system: OVCAR-5 ovarian
OVCAR-8 ovarian = system: OVCAR-8 ovarian
RPMI-8226 leukemia = system: RPMI-8226 leukemia
RXF 393 renal = system: RXF 393 renal
SF-268 CNS = system: SF-268 CNS
SF-295 CNS = system: SF-295 CNS
SF-539 CNS = system: SF-539 CNS
SK-MEL-2 melanoma = system: SK-MEL-2 melanoma
SK-MEL-28 melanoma = system: SK-MEL-28 melanoma
SK-MEL-5 melanoma = system: SK-MEL-5 melanoma
SK-OV-3 ovarian = system: SK-OV-3 ovarian
SN12C renal = system: SN12C renal
SNB-19 CNS = system: SNB-19 CNS
SNB-75 CNS = system: SNB-75 CNS
SNB-78 CNS = system: SNB-78 CNS
SR leukemia = system: SR leukemia
SW-620 colon = system: SW-620 colon
TK-10 renal = system: TK-10 renal
U251 CNS = system: U251 CNS
UACC-257 melanoma = system: UACC-257 melanoma
UACC-62 melanoma = system: UACC-62 melanoma
UO-31 renal = system: UO-31 renal
XF 498 CNS = system: XF 498 CNS
A498 renal = system: A498 renal
CAKI-1 renal = system: CAKI-1 renal
RXF-631 renal = system: RXF-631 renal

Work on `CCCCCCCCCCCC(=O)CC(=O)c1c(O)cccc1O` yielded a TGI (786-0 renal) of 39.4 µM, a TGI (A549 NSCLC) of 33.1 µM and a TGI (ACHN renal) of 35.2 µM. The TGI (CCRF-CEM leukemia) was over 100 µM, the TGI (COLO 205 colon) was 31.2 µM and the TGI (DLD-1 colon) was 32.4 µM. The TGI (DMS 114 small cell lung) was 34.6 µM, the TGI (DMS 273 small cell lung) was 32.6 µM and the TGI (EKVX NSCLC) was 33.4 µM. For the same compound, the TGI (HCC-2998 colon) was 82.9 µM, the TGI (HCT-116 colon) was 31.1 µM and the TGI (HCT-15 colon) was 47.4 µM. For the same compound, the TGI (HL-60(TB) leukemia) was over 100 µM, the TGI (HOP-18 NSCLC) was 36.7 µM and the TGI (HOP-62 NSCLC) was 48.9 µM. The TGI (HOP-92 NSCLC) was 39 µM, the TGI (HT29 colon) was 33.7 µM and the TGI (IGROV1 ovarian) was 36.4 µM. It also gave a TGI (K-562 leukemia) of 76.4 µM, a TGI (KM12 colon) of 31.2 µM and a TGI (KM20L2 colon) of 43.8 µM. It also gave a TGI (LOX IMVI melanoma) of 32 µM, a TGI (LXFL 529 NSCLC) of 32.2 µM and a TGI (M14 melanoma) of 32.9 µM. The TGI (M19-MEL melanoma) was 34.2 µM, the TGI (MALME-3M melanoma) was 32.6 µM and the TGI (MOLT-4 leukemia) was 41.9 µM. The TGI (NCI-H226 lung) was 32.1 µM, the TGI (NCI-H23 lung) was 41.9 µM and the TGI (NCI-H460 lung) was 35.7 µM. For the same compound, the TGI (NCI-H522 lung) was 65.3 µM, the TGI (OVCAR-3 ovarian) was 34.4 µM and the TGI (OVCAR-4 ovarian) was 34.1 µM. The TGI (OVCAR-5 ovarian) was 36.4 µM, the TGI (OVCAR-8 ovarian) was 30.6 µM and the TGI (RPMI-8226 leukemia) was 43.9 µM. It also gave a TGI (RXF 393 renal) of 34.5 µM, a TGI (SF-268 CNS) of 33 µM and a TGI (SF-295 CNS) of 34.8 µM. It also gave a TGI (SF-539 CNS) of 35.5 µM, a TGI (SK-MEL-2 melanoma) of 31 µM and a TGI (SK-MEL-28 melanoma) of 44.1 µM. The TGI (SK-MEL-5 melanoma) was 35.6 µM, the TGI (SK-OV-3 ovarian) was 95.5 µM and the TGI (SN12C renal) was 33.6 µM. It also gave a TGI (SNB-19 CNS) of 36.8 µM, a TGI (SNB-75 CNS) of 36.5 µM and a TGI (SNB-78 CNS) of 41 µM. For the same compound, the TGI (SR leukemia) was 45.8 µM, the TGI (SW-620 colon) was 31 µM and the TGI (TK-10 renal) was 57.5 µM. It also gave a TGI (U251 CNS) of 31.5 µM, a TGI (UACC-257 melanoma) of 34.5 µM and a TGI (UACC-62 melanoma) of 90.1 µM. For the same compound, the TGI (UO-31 renal) was 29.3 µM and the TGI (XF 498 CNS) was 33.3 µM.

`CCCCCCCCCC[C@@H](O)[C@@H]1CC[C@H]([C@H]2CC[C@@H]([C@@H](O)CCCCCCCCCC[C@H]3CC(CC(C)=O)C(=O)O3)O2)O1` (stereo partly drawn) was tested, and the TGI (786-0 renal) was 28.5 µM, the TGI (A498 renal) was 71.9 µM and the TGI (A549 NSCLC) was 30.6 µM. For the same compound, the TGI (CAKI-1 renal) was 75.8 µM, the TGI (CCRF-CEM leukemia) was 33.4 µM and the TGI (COLO 205 colon) was 28.8 µM. For the same compound, the TGI (DLD-1 colon) was 83 µM, the TGI (DMS 114 small cell lung) was 19 µM and the TGI (DMS 273 small cell lung) was 32.8 µM. It also gave a TGI (EKVX NSCLC) of 78 µM, a TGI (HCC-2998 colon) of 47 µM and a TGI (HCT-116 colon) of 17.8 µM. For the same compound, the TGI (HCT-15 colon) was 34 µM, the TGI (HL-60(TB) leukemia) was 2.29 µM and the TGI (HOP-62 NSCLC) was 31 µM. It also gave a TGI (HOP-92 NSCLC) of 33.4 µM, a TGI (HT29 colon) of 34.6 µM and a TGI (IGROV1 ovarian) of 39.2 µM. The TGI (K-562 leukemia) was 33.4 µM, the TGI (KM20L2 colon) was 52.7 µM and the TGI (LOX IMVI melanoma) was 36 µM. It also gave a TGI (LXFL 529 NSCLC) of 19.5 µM, a TGI (M14 melanoma) of 35.3 µM and a TGI (M19-MEL melanoma) of 46.5 µM. For the same compound, the TGI (MALME-3M melanoma) was 19.1 µM, the TGI (MOLT-4 leukemia) was 18.8 µM and the TGI (NCI-H226 lung) was 20.2 µM. For the same compound, the TGI (NCI-H23 lung) was 16.4 µM, the TGI (NCI-H460 lung) was over 100 µM and the TGI (NCI-H522 lung) was 13.2 µM. It also gave a TGI (OVCAR-3 ovarian) of 17.8 µM, a TGI (OVCAR-4 ovarian) of 21.7 µM and a TGI (OVCAR-5 ovarian) of 74.3 µM. For the same compound, the TGI (OVCAR-8 ovarian) was 37.8 µM, the TGI (RPMI-8226 leukemia) was 15.4 µM and the TGI (RXF-631 renal) was 38.3 µM. It also gave a TGI (SF-268 CNS) of 31.4 µM, a TGI (SF-539 CNS) of 22.7 µM and a TGI (SK-MEL-2 melanoma) of 30.7 µM. It also gave a TGI (SK-MEL-28 melanoma) of 24.4 µM, a TGI (SK-MEL-5 melanoma) of 10.7 µM and a TGI (SK-OV-3 ovarian) of 34.1 µM. It also gave a TGI (SN12C renal) of 49.1 µM, a TGI (SNB-19 CNS) of 31.3 µM and a TGI (SNB-75 CNS) of 26.9 µM. It also gave a TGI (SNB-78 CNS) of 37.2 µM, a TGI (SW-620 colon) of 38 µM and a TGI (TK-10 renal) of 32.8 µM. The TGI (U251 CNS) was 43.8 µM, the TGI (UACC-257 melanoma) was 26.7 µM and the TGI (UACC-62 melanoma) was 32.2 µM. It also gave a TGI (UO-31 renal) of 16.5 µM.

Reference: PubChem BioAssay (NCI)
